Measurements published in patent US8461329B2, “Isoquinoline derivative” (Taisho Pharmaceutical Co., Ltd., priority 2008, dated 2013).
pIC50: −log10 of the molar value.

target: T1, CRTH2 (KB8 cells) (Homo sapiens, UniProt Q9Y5Y4); experiment: CRTH2 antagonist test (PGD2-induced intracellular calcium ion concentration increase in KB8 cells); assay type: cell-based; details: PGD2 final concentration 100 nM, Fluo-4-AM fluorescence, read-out: antagonist activity (IC50 value, inhibition of calcium ion concentration increase)
T1 construct: host or cells: KB8 cells (human CRTH2 expression cell)
T1 sequence (Q9Y5Y4 1-395): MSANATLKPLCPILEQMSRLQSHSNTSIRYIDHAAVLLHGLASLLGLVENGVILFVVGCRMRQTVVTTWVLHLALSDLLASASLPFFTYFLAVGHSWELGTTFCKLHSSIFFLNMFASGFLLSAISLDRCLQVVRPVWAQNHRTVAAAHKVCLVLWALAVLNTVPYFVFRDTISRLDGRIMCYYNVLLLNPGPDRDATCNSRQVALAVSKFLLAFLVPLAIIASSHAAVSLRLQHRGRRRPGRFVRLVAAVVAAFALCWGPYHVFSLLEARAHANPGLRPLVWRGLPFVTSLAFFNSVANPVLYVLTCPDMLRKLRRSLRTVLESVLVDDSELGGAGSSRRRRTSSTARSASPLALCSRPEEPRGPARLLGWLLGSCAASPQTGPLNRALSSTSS
Experimental: The antagonist activity of the compound of the present invention was considered by using the intracellular calcium ion concentration increase reaction induced when the prostaglandin D2 was added to KB8 cells.
Fluo-4-AM (4-(6-acetoxymethoxy-2,7-difluoro-3-oxo-9-xanthenyl)-4′-methyl-2,2′-(ethylenedioxy)dianilide-N,N,N′,N′-tetraacetic acid tetrakis(acetoxymethyl) ester (SIGMA, final concentration: 1 μM) was added to KB8 cells, and the cells were incubated at 37° C. for 30 min, washed with phosphate buffer (Invitrogen), and then suspended in Hank's balanced salt solution (Invitrogen)) containing a reaction buffer solution (10 mM HEPES (Invitrogen), and 1 mM calcium chloride (SIGMA). The suspension was dispensed in a 96 well plate (Nunc) so that 2×10^5 cells/well were placed, and the compound of the present invention and PGD2 (final concentration: 100 nM) were added. The fluorescence intensity thereof was measured over time by using FDSS6000 (Hamamatsu Photonics), and thus the maximum fluorescence intensity value “d” was obtained. The same procedure was carried out in the absence of the compound, and the maximum fluorescence intensity value “e” was obtained; and the same procedure was carried out in the absence of the compound and […], and the maximum fluorescence intensity value “f” was obtained.
The calcium ion concentration increase inhibition rate of a compound was calculated by the following calculation formula: Inhibitory rate(%)=[1−(d−f)/(e−f)]×100
That is to say, by using calcium ion concentration increase inhibitory rates of compounds to be tested having various concentrations, the IC50 value was calculated according to a dose-dependent inhibition curve analyzed by using XLfit (IDBS) as a data analysis software, and the value was defined as an indicator of the antagonist activity. In Tables, A denotes an inhibitory activity showing the IC50 value of less than 50 nM; B denotes an inhibitory activity showing the IC50 value of 50 nM or greater and less than 500 nM; C denotes an inhibitory activity showing the IC50 value of 500 nM or greater and less than 1000 nM; and D denotes an inhibitory activity showing the IC50 value of 1000 nM or greater.

Compound	pIC50
Cc1ccc(CCNC(=O)c2ccc(Cc3ncc(CC(=O)O)c4ccccc34)cc2)cc1C [Example 168]	6.30 to 7.30
Cc1ccc(C)c(CCNC(=O)c2ccc(Cc3ncc(CC(=O)O)c4ccccc34)cc2)c1 [Example 169]	6.30 to 7.30
COc1ccc(CCNC(=O)c2ccc(Cc3ncc(CC(=O)O)c4ccccc34)cc2)cc1Cl [Example 170]	6.30 to 7.30
COc1ccc(CCNC(=O)c2ccc(Cc3ncc(CC(=O)O)c4ccccc34)cc2)cc1C [Example 171]	6.30 to 7.30
O=C(O)Cc1cnc(Cc2ccc(C(=O)NCCc3cccc(Br)c3)cc2)c2ccccc12 [Example 172]	6.30 to 7.30
O=C(O)Cc1cnc(Cc2ccc(C(=O)NCCc3ccc(C(=O)O)cc3)cc2)c2ccccc12 [Example 173]	≤ 6.00
O=C(O)Cc1cnc(Cc2ccc(C(=O)NCCc3ccc([N+](=O)[O-])cc3)cc2)c2ccccc12 [Example 174]	6.30 to 7.30
O=C(O)Cc1cnc(Cc2ccc(C(=O)NCCc3ccccn3)cc2)c2ccccc12 [Example 175]	≤ 6.00
O=C(O)Cc1cnc(Cc2ccc(C(=O)NCCc3cccnc3)cc2)c2ccccc12 [Example 176]	≤ 6.00
O=C(O)Cc1cnc(Cc2ccc(C(=O)NCCc3ccncc3)cc2)c2ccccc12 [Example 177]	≤ 6.00
O=C(O)Cc1cnc(Cc2ccc(C(=O)NCCOc3ccc(Cl)cc3)cc2)c2ccccc12 [Example 178]	6.30 to 7.30
O=C(O)Cc1cnc(Cc2ccc(C(=O)NCCc3c[nH]c4ccccc34)cc2)c2ccccc12 [Example 179]	> 7.30
O=C(O)Cc1cnc(Cc2ccc(C(=O)NCCc3ccc(Cl)cc3Cl)cc2)c2ccccc12 [Example 180]	> 7.30

The remaining lines, values ahead:

pIC50	Compound
6.30 to 7.30	O=C(O)Cc1cnc(Cc2ccc(C(=O)NCCc3ccccc3F)cc2)c2ccccc12 [Example 181]
6.30 to 7.30	O=C(O)Cc1cnc(Cc2ccc(C(=O)NCCc3cccc(F)c3)cc2)c2ccccc12 [Example 182]
> 7.30	O=C(O)Cc1cnc(Cc2ccc(C(=O)NCCc3ccccc3Br)cc2)c2ccccc12 [Example 183]
6.30 to 7.30	COc1ccccc1CCNC(=O)c1ccc(Cc2ncc(CC(=O)O)c3ccccc23)cc1 [Example 184]
≤ 6.00	O=C(O)Cc1cnc(Cc2ccc(C(=O)NCCN3CCOCC3)cc2)c2ccccc12 [Example 185]
6.00 to 6.30	CCCCNC(=O)c1ccc(Cc2ncc(CC(=O)O)c3ccccc23)cc1 [Example 186]
> 7.30	O=C(O)Cc1cnc(Cc2ccc(C(=O)NCCC3CCCCC3)cc2)c2ccccc12 [Example 187]
6.30 to 7.30	O=C(O)Cc1cnc(Cc2ccc(C(=O)NCCC3=CCCCC3)cc2)c2ccccc12 [Example 188]
≤ 6.00	COc1ccc(CCNC(=O)c2ccc(Cc3ncc(CC(=O)O)c4ccccc34)cc2)cc1OC [Example 189]
6.30 to 7.30	O=C(O)Cc1cnc(Cc2ccc(C(=O)NCCc3c(F)cccc3Cl)cc2)c2ccccc12 [Example 190]
6.30 to 7.30	O=C(O)Cc1cnc(Cc2ccc(C(=O)NCCc3c(Cl)cccc3Cl)cc2)c2ccccc12 [Example 191]
> 7.30	Cc1c(C)c(C)c(CCNC(=O)c2ccc(Cc3ncc(CC(=O)O)c4ccccc34)cc2)c(C)c1C [Example 192]
> 7.30	CC(C)(C)c1ccc(CCNC(=O)c2ccc(Cc3ncc(CC(=O)O)c4ccccc34)cc2)cc1 [Example 193]
> 7.30	O=C(O)Cc1cnc(Cc2ccc(C(=O)NCCc3ccc(-c4ccccc4)cc3)cc2)c2ccccc12 [Example 194]
> 7.30	O=C(O)Cc1cnc(Cc2ccc(C(=O)NCCc3ccc(Oc4ccccc4)cc3)cc2)c2ccccc12 [Example 195]
6.00 to 6.30	O=C(O)Cc1cnc(Cc2ccc(C(=O)NCCc3ccc(O)cc3)cc2)c2ccccc12 [Example 196]
6.30 to 7.30	COc1cccc(CCNC(=O)c2ccc(Cc3ncc(CC(=O)O)c4ccccc34)cc2)c1 [Example 197]
> 7.30	O=C(O)Cc1cnc(Cc2ccc(C(=O)NCCc3ccc(Br)cc3)cc2)c2ccccc12 [Example 199]
6.30 to 7.30	O=C(O)Cc1cnc(Cc2ccc(C(=O)NCCc3ccc(F)cc3)cc2)c2ccccc12 [Example 200]
